Results as given in patent US8716558B2, “Method of altering glycosylation of proteins in response to nojirimycin glucuronide in a plant cell expressing glucuronidase” (Marker Gene Technologies, Inc., priority 1999, dated 2014).

Tests used:
[1] = tested on: E. coli strains CSH23/S90C and CSH22/S90C; experiment: Bacterial growth assay under non-inducing conditions (loss of activity upon conjugation); type: cell-based; settings: 10 μg/ml 5FUR or 16.2 μg/ml M0174, M9 media, FIG. 1
Method: E. coli strains CSH23/S90C and CSH22/S90C were tested with 5-fluorouridine (5FUR) and the 5FUR-galactoside conjugate described in Example 16, 5-fluorouridine-5′-O-β-D-galactopyranoside, (M0174) to confirm loss of biological activity upon conjugation. CSH23 is a strain inducible for lacZ expression; CSH22 is a deletion mutant for lacZ and is therefore uninducible. Other strains with these properties are commercially available. When grown under non-inducing conditions, neither strain will produce β-galactosidase. Each strain was innoculated into 10 mL M9 minimal media and grown in non-inducing conditions, shaking at 37° C. overnight. Overnight cultures (500 μL) were transferred into […] fresh M9 media and grown to logarithmic phase for 4 hours prior to beginning the experiments. 1 mL of this culture was transferred to 10 ml fresh M9 media containing 10 μg/ml 5FUR, 16.2 μg/ml M0174, or no additions, and returned to the incubator. Growth curves were generated by removing aliquots of each culture at 30 minute intervals and reading absorbance at 420 nm. All final data was run in duplicate trials.

[2] = tested on: E. coli CSH36/S90C and CSH22/S90C co-culture; experiment: Co-culture bystander effect, colony growth on X-gal plates; type: cell-based; settings: 10 μg/ml 5FUR or 16.2 μg/ml M0174, plated on X-gal
Method: E. coli strains CSH36/S90C and CSH22/S90C were grown in co-culture and tested with the 5FUR-galactoside conjugate described in Example 16, 5-fluorouridine-5′-O-β-D-galactopyranoside, (M0174) to show translocation of drug released in β-Gal expressing cells to other cells in the culture. CSH36 is a constitutive mutant for lacZ and therefore produces β-galactosidase regardless of induction conditions. CSH22 is a deletion mutant for lacZ and is therefore uninducible. Each strain individually and both strains together were innoculated into 10 mL aliquots of M9 minimal media and grown shaking at 37° C. overnight. Overnight cultures (500 μL) were transferred into 10 mL fresh M9 media and grown to logarithmic phase for 4 hours prior to beginning the experiments. 1 mL of this culture was transferred to 10 ml fresh M9 media containing 10 μg/ml 5-fluorouridine (5FUR), 16.2 μg/ml M0174, or no additions, and returned to the incubator. Growth curves were generated by removing aliquots of each culture at 30 minute intervals and reading absorbance at 420 nm. Remaining portions of these cultures were allowed to grow overnight, and final absorbance readings were taken. […] Plates were incubated at 37° C. for 48 hours, then evaluated for growth of white (indicating lacZ −, CSH22 cells) and blue (indicating lacZ+, CSH36 cells) colonies.

[3] = tested on: D5 tumor cells lipofected with a lacZ containing vector; experiment: In vivo pulmonary tumor growth, lipofected tumor cells; parameters: species or system C57/J(B6) mice
Method: To test the efficacy of pro-drug delivery in vivo for initiation and mediation of a host cellular immune response to genetically modified tumor, C57/J(B6) mice (22-36 g each) are injected intravenous with 50 μL HBBS containing 1×10^6 D5 tumor cells that are either untreated, lipofected with a vector containing the lacZ gene, lipofected with a vector containing both the lacZ and the H-2K allogeneic major histocompatability complex (MHC) class I gene (Wahl, et al, 1995), or lipofected with a vector containing the H-2K gene alone. After 2 days, accumulation of the tumor cells in the lung tissue is expected. Two animals are retained as controls, and necropsy examination and tumor staining of the lipofected animals is performed at the end of the trial, to confirm pulmonary tumor growth.
The doxorubicin-galactoside pro-drug of Example 19 is administered intraperitoneally starting at Day 3, for 20 days, to mice that received lipofected tumor cells in doses of either 5, 10 or 25 mg/kg/day, and to mice that received untreated tumor cells in doses of 50 mg/kg/day. Measurement of tumor growth is determined by necropsy examination of lung tissue and staining at day 25.

[4] = tested on: E. coli CSH36/S90C and CSH22/S90C co-culture; experiment: Co-culture selection, colony growth on X-gal plates; type: cell-based; settings: 30 μg/ml chloramphenicol or 42 μg/ml M0165, plated on X-gal
Method: E. coli strains CSH36/S90C and CSH22/S90C were grown in co-culture and tested with the chloramphenicol galactoside pro-drug (M0165) described in Example 15, to show lack of translocation of drug released in β-galactosidase expressing cells to other cells in the culture, and therefore selection for the lacZ-cells. CSH36 is a constitutive mutant for lacZ and therefore produces β-galactosidase regardless of induction conditions. CSH22 is a deletion mutant for lacZ and is therefore uninducible. Each strain individually and both strains together were innoculated into 10 mL aliquots of M9 minimal media and grown shaking at 37° C. overnight. Overnight cultures (500 μL) were transferred into 10 mL fresh M9 media and grown to logarithmic phase for 4 hours prior to beginning the experiments. 1 mL of this culture was transferred to 10 ml fresh M9 media containing 30 μg/ml chloramphenicol, 42 μg/ml M0165, or no additions, and returned to the incubator. Growth curves were generated by removing aliquots of each culture at 30 minute intervals and reading absorbance at 420 nm. Remaining portions of the cultures were allowed to grow overnight, and final absorbance readings were taken. […] Plates were incubated at 37° C. for 48 hours, then evaluated for growth of white (indicating lacZ −, CSH22 cells) and blue (indicating lacZ +, CSH 36 cells) colonies.

[5] = tested on: D5 murine melanoma cells lipofected with pCMVβ (lacZ); experiment: MTT cell proliferation assay, lacZ-lipofected tumor cells; type: cell-based
Method: (§1) For the MTT assay, cells are incubated with the MTT reagent, which is turned over by live cells to a purple MTT formazan product. Turnover is directly proportional to the number of live cells, enabling a proportional measurement of the number of cells to be achieved by measuring the production of MTT formazan. Media is removed from cells in the twelve well plate and replaced with DME containing 10 mM Hepes. 0.25 mL of a 2 mg/ml solution of MTT is then added to each well, and plates are covered and wrapped with aluminum foil and incubated at 37° C. for three hours. Plates are then emptied of the media MTT solution, and 1 mL of DMSO and 125 μL of Sorensens glycine buffer are added to each well to solubilize the MTT formazan product. Absorbence of each sample is measured against a DMSO blank at 570 nm.
(§2) Lipofection of D5 murine melanoma cells with the pCMVβ plasmid containing the lacZ gene provided a lacZ positive set of cells with transient but high levels of ? -galactosidase expression. A 60 mm plate of D5 cells, 80% confluent, was lipofected for 5 hours with 3.6 μg/ml pCMVB (a plasmid containing the lacZ gene)(CLONTECH) using 36 μL lipofectAmine reagent (Life Technologies, Gibco BRL). After lipofection, fresh media was added to the cells to dilute the lipofection reagent, and cells were grown for 2 days. A cover slip of the lipofected D5 cells was stained with X-gal and transfection efficiency was estimated at 70%. D5 and lipofected D5 cells were plated in 12 well plates at a density of 12×10^3 cells per well and incubated 6 hours. The 5FUR-galactoside conjugate described in Example 16, 5-fluorouridine-5′-O-β-D-galactopyranoside (M0174) was added to cells at various concentrations and cells were incubated 6 hours, after which the media was changed. Cells were allowed to grow another 36 hours, then the MTT assay was performed to estimate the number of living cells per well. Cell numbers were expressed as a percent of the number of cells in the control well. All assay points were performed in duplicate and averaged. […]

D5 murine melanoma cells = experiment: MTT cell proliferation assay, non-lipofected tumor cells; type: cell-based
Method: as §1, §2

[6] = tested on: D5 mouse melanoma tumors lipofected with a lacZ vector; experiment: In vivo growth of subcutaneous tumors from lacZ-lipofected cells; parameters: species or system C57/J(B6) mice; settings: 25 and 50 mg/Kg/Day intraperitoneally for 4 days from Day 3
Method: (§3) The 5FUR-galactoside conjugate described in Example 16, 5-fluorouridine-5′-O-β-D-galactopyranoside (M0174) was tested to determine the reduction of tumor growth of subcutaneously implanted D5 mouse melanoma tumors that had been lipofected with a vector containing the lacZ marker gene in mice. […] C57/J(B6) mice (22-36 g each) were injected in the right flank with 50 μL HBBS containing 1×10^6D5 tumor cell that were either untreated or lipofected with a vector containing the lacZ gene. M0174 was administered intraperitoneally starting at Day 3, for 4 days, to mice that had received lipofected tumor cells in doses of either 25 or 50 mg/kg/day, and to mice that had received untreated tumor cells in doses of 100 mg/kg/day. Measurement of tumor area in mm^2 began on Day 8 and ended on Day 26. […] NO EFFECT (i.e. no significant drug release) for pro-drug on non-lipofected cells was found (even at 100 mg/Kg/Day), indicating once again a lack of biological activity for the pro-drug, M0174.

[7] = tested on: D5 mouse melanoma tumors (untreated cells); experiment: In vivo growth of subcutaneous tumors from non-lipofected cells; parameters: species or system C57/J(B6) mice; settings: 100 mg/Kg/Day intraperitoneally for 4 days from Day 3
Method: as §3

[8] = tested on: E. coli W3110 (inducible for lacZ); experiment: Bacterial growth with ONPG with or without IPTG induction; type: cell-based; settings: 0.3 mg/ml ONPG
Method: (§4) E. coli strains CSH36 and W3110 available from the ATCC, Manassas, Va. were tested with orthonitrophenyl β-D-galactopyranoside (ONPG), according to the procedure of Marsh, 1994, to confirm release of compound upon induction of β-galactosidase production. W3110 is a wild-type E. coli strain inducible for lacZ expression; CSH36 is a constitutive mutant for lacZ and therefore produces β-galactosidase regardless of induction conditions. Each strain was innoculated into 10 mL M9 minimal media and grown in non-inducing conditions, shaking at 37° C. overnight. W3110 was also innoculated into 10 mL M9 media containing 0.3 mM iso-propyl thiogalactoside (IPTG) (W3110i) to induce β-galactosidase production. Overnight cultures (500 μL) were transferred into 10 mL fresh M9 media (+/−IPTG) and grown to logarithmic phase for 4 hours prior to beginning the experiments. 1 mL of this culture was transferred to 10 ml fresh M9 media (+/−IPTG) containing 0.3 mg/ml ONPG or no additions, and returned to the incubator. Growth curves were generated by removing aliquots of each culture at 30 minute intervals and reading absorbance at 420 nm. All final data was run in duplicate trials (A and B). […] ONP is also toxic to the bacteria, and therefore growth was retarded in those cultures producing β-galactosidase and turning over ONPG to ONP (see below and FIG. 2).

[9] = tested on: E. coli CSH36 (constitutive mutant for lacZ); experiment: Bacterial growth with ONPG; type: cell-based; settings: CSH36, no IPTG, 0.3 mg/ml ONPG
Method: as §4

**Q.** Which “effect on growth (growth curves, absorbance at 420 nm)” value [1] does the source give for `O=c1[nH]c(=O)n([C@@H]2O[C@H](CO)[C@@H](O)[C@H]2O)cc1F` [Example 5FUR, 5-fluorouridine, reference compound] here?
**A.** The value was “significant decrease in growth”.

**Q.** And the “colony growth after overnight co-culture” value [2]?
**A.** Its value is “no growth of either cell type”.

**Q.** How did the “tumor growth in lung tissue (necropsy and staining at day 25)” value ([3]; 5, 10 or 25 mg/kg/day intraperitoneally for 20 days from Day 3) turn out when `COc1cccc2c1C(=O)c1c(O)c3c(c(OC4OC(CO)C(O)C(O)C4O)c1C2=O)C[C@@](OC1OC(CO)C(O)C(O)C1O)(C(C)=O)C[C@@H]3OC1CC(N)C(OC2OC(CO)C(O)C(O)C2O)CO1` (some centres unmarked) [Example 19] was run?
**A.** Its value is “Tumor regression”.

**Q.** And the tumor burden ([3]; animals receiving both lacZ and H-2K gene)?
**A.** The tumor burden was “lower tumor burden”.

**Q.** How did the “colony growth after overnight co-culture” value [4] turn out when `O=C(NC(COC1OC(CO)C(O)C(O)C1O)C(O)c1ccc([N+](=O)[O-])cc1)C(Cl)Cl` [Example M0165, D(−)-threo-2,2-dichloro-N-[β-hydroxy-α-(O-β-D-galactopyranosylmethyl)-β-(4-nitrophenyl)ethyl]acetamide] was run?
**A.** Its value is “growth of only CSH22 cells”.

**Q.** What does the source list for `O=c1[nH]c(=O)n([C@@H]2O[C@H](CO[C@@H]3O[C@H](CO)[C@H](O)[C@H](O)[C@H]3O)[C@@H](O)[C@H]2O)cc1F` [Example M0174, 5-Fluorouridine-5′-O-β-D-Galactopyranoside]?
**A.** effect on growth (growth curves, absorbance at 420 nm) [1]: very little effect; activity at 0.3 µg/mL ([5]; Mus musculus, 0.3 ug/ml, 6 hours exposure, MTT after another 36 hours, read-out: D5 lipofected, % of control growth): 48%; activity at 5 µg/mL ([5]; Mus musculus, 5 ug/ml, 6 hours exposure, MTT after another 36 hours, read-out: D5 lipofected, % of control growth): 22%; effect on cell growth ([5]; lipofected D5 cells): growth inhibited; activity at 0.3 µg/mL (D5 murine melanoma cells; Mus musculus, 0.3 ug/ml, 6 hours exposure, MTT after another 36 hours, read-out: D5 % of control growth): 110%; activity at 5 µg/mL (D5 murine melanoma cells; Mus musculus, 5 ug/ml, 6 hours exposure, MTT after another 36 hours, read-out: D5 % of control growth): 87.9%; effect on cell growth (D5 murine melanoma cells; non-lipofected cells, even at high dosage values): unaffected; tumor growth (tumor area in mm^2, Day 8 to Day 26) [6]: slight delay in tumor growth; tumor growth (tumor area in mm^2, Day 8 to Day 26) [7]: NO EFFECT; colony growth after overnight co-culture [2]: no growth of either cell type

**Q.** `O=[N+]([O-])c1ccccc1O[C@@H]1O[C@H](CO)[C@H](O)[C@H](O)[C@H]1O` [ONPG, orthonitrophenyl β-D-galactopyranoside] was tested. Which “Doubling Time” value ([8]; W3110, 0.3 mM IPTG) did it give?
**A.** The value was 215 min.

**Q.** And the “Doubling Time” value ([8]; W3110, no IPTG)?
**A.** The value was 92 min.

**Q.** And the “Doubling Time (min)” value [9]?
**A.** The value was “*not measurable”.

**Q.** And the “time after start of experiments at which growth halted” value [9]?
**A.** The value was “*growth halted approximately 2 hours after start of experiments”.

**Q.** How did the “colony growth after overnight co-culture” value [4] turn out when `O=C(N[C@H](CO)[C@H](O)c1ccc([N+](=O)[O-])cc1)C(Cl)Cl` [chloramphenicol, reference compound] was run?
**A.** The value was “no growth of either cell type”.
